Experiment [1] relates to Eimeria tenella. Nature of the experiment: Antiparasitic activity against Eimeria tenella in chicken at 25 ppm in feed assessed as percent reduction in oocyst. Format: functional. On the set-up: scale not given: the % may be the effect or the level left.
Experiment [2] deals with cGMP-dependent protein kinase (Eimeria tenella, UniProt Q8MMZ8). Nature of the experiment: Inhibition of Eimeria tenella PKG.
Experiment [3] relates to Eimeria acervulina. Nature of the experiment: Antiparasitic activity against Eimeria acervulina in chicken at 25 ppm in feed assessed as percent reduction in oocyst. Format: functional. On the set-up: scale not given: the % may be the effect or the level left.
Experiment [4] deals with Eimeria tenella. Nature of the experiment: Antiparasitic activity against Eimeria tenella in chicken at 50 ppm in feed assessed as percent reduction in oocyst. Type of experiment: functional. On the set-up: scale not given: the % may be the effect or the level left.
Experiment [5] deals with Eimeria acervulina. Nature of the experiment: Antiparasitic activity against Eimeria acervulina in chicken at 50 ppm in feed assessed as percent reduction in oocyst. Type of experiment: functional. On the set-up: scale not given: the % may be the effect or the level left.

Sequence of cGMP-dependent protein kinase (Q8MMZ8 whole entry): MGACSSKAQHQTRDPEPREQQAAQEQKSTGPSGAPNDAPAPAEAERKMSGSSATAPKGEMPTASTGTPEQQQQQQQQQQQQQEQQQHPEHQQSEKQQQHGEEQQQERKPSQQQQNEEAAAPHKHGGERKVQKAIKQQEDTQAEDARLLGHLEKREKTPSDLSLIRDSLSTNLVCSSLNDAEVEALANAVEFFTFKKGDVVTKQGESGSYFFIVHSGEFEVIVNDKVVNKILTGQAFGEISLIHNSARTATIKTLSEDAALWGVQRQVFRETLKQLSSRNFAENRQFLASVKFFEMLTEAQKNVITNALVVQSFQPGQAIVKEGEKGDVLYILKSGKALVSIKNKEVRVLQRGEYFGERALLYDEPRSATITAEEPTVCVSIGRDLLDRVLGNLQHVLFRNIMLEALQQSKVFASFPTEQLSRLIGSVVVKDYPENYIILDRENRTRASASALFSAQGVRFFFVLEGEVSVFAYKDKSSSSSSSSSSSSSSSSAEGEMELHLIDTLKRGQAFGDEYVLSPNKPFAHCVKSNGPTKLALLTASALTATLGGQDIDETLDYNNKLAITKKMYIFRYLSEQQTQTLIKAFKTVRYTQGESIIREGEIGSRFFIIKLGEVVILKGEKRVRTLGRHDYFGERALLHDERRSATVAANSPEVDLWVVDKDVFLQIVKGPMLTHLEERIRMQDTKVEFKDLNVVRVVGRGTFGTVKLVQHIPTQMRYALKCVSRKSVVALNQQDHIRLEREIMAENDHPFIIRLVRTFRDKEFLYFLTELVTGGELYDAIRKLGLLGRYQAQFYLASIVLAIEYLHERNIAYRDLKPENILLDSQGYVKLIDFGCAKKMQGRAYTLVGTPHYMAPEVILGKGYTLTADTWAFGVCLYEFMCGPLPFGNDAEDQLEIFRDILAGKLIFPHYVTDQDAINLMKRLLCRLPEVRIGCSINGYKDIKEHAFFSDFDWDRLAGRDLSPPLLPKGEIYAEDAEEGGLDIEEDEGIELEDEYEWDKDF

For `C[C@H](Nc1nccc(-c2c(-c3ccc(F)cc3)nc3cc(CN(C)C)ccn23)n1)c1ccccc1`, the Activity result in the experiment on Eimeria tenella [1] is “>=80%”; in the experiment with Eimeria acervulina [3], less than 50%. Half-maximal inhibition in experiment [2] (IC50) was put at 0.47 nM.

Regarding `C[C@@H](Nc1nccc(-c2c(-c3ccc(F)cc3)nc3cc(CN(C)C)ccn23)n1)c1ccccc1`, the Activity result in the experiment with Eimeria tenella [1] and in the experiment with Eimeria acervulina [3] was “>=80%” throughout. Moreover, the IC50 – broadly, the concentration that inhibits the measured activity by half – in experiment [2] stood at 0.32 nM.

Compound `CN(C)Cc1ccn2c(-c3ccnc(OCc4ccccc4)n3)c(-c3ccc(F)cc3)nc2c1` had an IC50 in experiment [2] of 0.27 nM. In addition, the Activity with Eimeria tenella [4] and in the experiment on Eimeria acervulina [5] was less than 50% in each case.

As to `CN(C)Cc1ccn2c(-c3ccnc(N(C)Cc4ccccc4)n3)c(-c3ccc(F)cc3)nc2c1`, the results for the Activity in the experiment on Eimeria tenella [1] and with Eimeria acervulina [3] were less than 50% and 50%, respectively. The compound also showed an IC50 in experiment [2] of 3 nM.

The record behind these values is ChEMBL document CHEMBL1146157, “Synthesis and SAR of 2-(4-fluorophenyl)-3-pyrimidin-4-ylimidazo[1,2-a]pyridine derivatives as anticoccidial agents” (Bioorg Med Chem Lett, 2006).
